Test results published in US6764858B2, “Methods for creating a compound library” (Pharmacia & Upjohn Company, priority 1999, dated 2004).

Biological target: T1, thrombin (Homo sapiens, UniProt P00734)
T1 construct: purchased Sigma
Experiment: WaterLOGSY NMR screen of the functional genomics library against thrombin
Assay type: binding
Conditions: 133 μM compound, 7 μM thrombin, 100 mM phosphate buffer, pH6.5
Experimental: Several proteins with known functions were used for validating the screening library. The proteins were dissolved in 100 mM phosphate buffer, pH 6.5 to make stock solutions which were further diluted and mixed with the compound mixtures to make final concentration of 5-7 μM. The concentration of compounds was about 133 μM in the final solution. The ratio of compound to protein concentrations was about 20:1.
NMR experiments for validating the functional genomics library with proteins of known functions were conducted on a Bruker Avance 600 MHz spectrometer equipped with 5 mm FISEI flow probe and Gilson 215 liquid sample handler. Binding was detected using the WaterLOGSY experiment.
The functional genomics screening library was screened against thrombin obtained from Sigma, which is one of the test proteins used for validation of the library. One assay mixture contained 133 μM of N-alpha-dansyl-DL-tryptophan cyclohexylammonium salt (DPS) and 7 μM of thrombin in 100 mM phosphate buffer, pH6.5. This mixture also contained Benzyl (S)-(−)-2-(1-pyrrolidinylcarbonyl)-1-pyrrolidinecarboxylate (ZPR), Chymostatin A (CSA), Tetrahydrofolic acid (C2F), Haloperidol (THK). Referring to FIG. 17, the reference NMR spectrum of DPS is in the top panel while the WaterLOGSY spectrum of the mixture is shown in the bottom panel. The positive peak in the WaterLOGSY spectrum indicates binding of DPS to thrombin. […]

binding to thrombin (positive peak in WaterLOGSY spectrum): binding
Compound: CN(C)c1cccc2c(S(=O)(=O)NC(Cc3c[nH]c4ccccc34)C(=O)O)cccc12.NC1CCCCC1 (racemic) [DPS, N-alpha-dansyl-DL-tryptophan cyclohexylammonium salt]
